≈ marks a conversion by molar mass, not a printed value.
Tested on: M. catarrhalis A894
Experiment: Minimal inhibitory concentration (MIC), microdilution method in cation-adjusted Mueller-Hinton Broth (CLSI M7-A7)
Assay type: cell-based
Details: strain A894; for MIC: Moraxella catarrhalis
Procedure: Minimal inhibitory concentrations (MICs; mg/1) were determined in cation-adjusted Mueller-Hinton Broth by a microdilution method following the description given in “Methods for Dilution Antimicrobial Susceptibility Tests for Bacteria that Grow Aerobically”, Approved standard, 7th ed., Clinical and Laboratory Standards Institute (CLSI) Document M7-A7, Wayne, Pa., USA, 2006.

Compound | MIC [µg/mL] | MIC for M. catarrhalis A894
NC[C@H]1[C@H](NCCC[C@@H]2CN(c3ccc4c(c3)NC(=O)CS4)C(=O)O2)c2c(F)ccc3ccc(=O)n1c23 (relative stereo) [Example 188, (1R*,2S*)-2-aminomethyl-9-fluoro-1-{3-[(R)-2-oxo-3-(3-oxo-3,4-dihydro-2H-benzo[1,4]thiazin-6-yl)-oxazolidin-5-yl]-propylamino}-1,2-dihydro-pyrrolo[3,2,1-ij]quinolin-4-one] | ≤ 0.031 | 
O=C1CSc2ccc(N3C[C@@H](CCCN[C@H]4Cn5c(=O)ccc6ccc(F)c4c65)OC3=O)cc2N1 [Example 127, (R)-9-fluoro-1-{3-[(R)-2-oxo-3-(3-oxo-3,4-dihydro-2H-benzo[1,4]thiazin-6-yl)-oxazolidin-5-yl]-propylamino}-1,2-dihydro-pyrrolo[3,2,1-ij]quinolin-4-one] | ≤ 0.031 | 
Cl.O=C1CSc2ccc(N3C[C@H](CCCN[C@H]4Cn5c(=O)ccc6c(C(=O)O)ccc4c65)OC3=O)cc2N1 [Example 121, (R)-4-oxo-1-{3-[(S)-2-oxo-3-(3-oxo-3,4-dihydro-2H-benzo[1,4]thiazin-6-yl)-oxazolidin-5-yl]-propylamino}-1,2-dihydro-4H-pyrrolo[3,2,1-ij]quinoline-7-carboxylic acid hydrochloride] | 0.125 | 
(1R,2S)-2-methyl-1-{3-[(R)-2-oxo-3-(3-oxo-3,4-dihydro-2H-benzo[1,4]thiazin-6-yl)-oxazolidin-5-yl]-propylamino}-1,2-dihydro-pyrrolo[3,2,1-ij]quinolin-4-one and (1S,2R)-2-methyl-1-{3-[(R)-2-oxo-3-(3-oxo-3,4-dihydro-2H-benzo[1,4]thiazin-6-yl)-oxazolidin-5-yl]-propylamino}-1,2-dihydro-pyrrolo[3,2,1-ij]quinolin-4-one [Example 166] |  | ≦0.031 mg/l
O=C1CSc2ccc(N3C[C@H](CCN(CCO)CC4Cn5c(=O)ccc6ccc(F)c4c65)OC3=O)cc2N1 (mixture of isomers) [Example 91, (RS)-9-fluoro-1-[((2-hydroxy-ethyl)-{2-[(S)-2-oxo-3-(3-oxo-3,4-dihydro-2H-benzo[1,4]thiazin-6-yl)-oxazolidin-5-yl]-ethyl}-amino)-methyl]-1,2-dihydro-pyrrolo[3,2,1-ij]quinolin-4-one] | ≤ 0.031 | 
O=C1CSc2ccc(N3C[C@@H](CNCCC4Cn5c(=O)ccc6ncc(F)c4c65)OC3=O)cc2N1 (mixture of isomers) [Example 17, (4RS)-3-fluoro-4-(2-{[(R)-2-oxo-3-(3-oxo-3,4-dihydro-2H-benzo[1,4]thiazin-6-yl)-oxazolidin-5-ylmethyl]-amino}-ethyl)-4,5-dihydro-pyrrolo[3,2,1-de][1,5]naphthyridin-7-one] | ≤ 0.031 | 
O=C1COc2ccc(N3C[C@@H](CCCNC4Cn5c(=O)ccc6ccc(F)c4c65)OC3=O)cc2N1 (mixture of isomers) [Example 12, (1RS)-9-fluoro-1-{3-[(R)-2-oxo-3-(3-oxo-3,4-dihydro-2H-benzo[1,4]oxazin-6-yl)-oxazolidin-5-yl]-propylamino}-1,2-dihydro-pyrrolo[3,2,1-ij]quinolin-4-one] | ≤ 0.031 | 
O=C1CSc2ccc(N3C[C@H]([C@H](O)CC(=O)N[C@@H]4Cn5c(=O)ccc6ccc(F)c4c65)OC3=O)cc2N1 (mixture of isomers) [Example 108, (RS)—N—((S)-9-fluoro-4-oxo-1,2-dihydro-4H-pyrrolo[3,2,1-ij]quinolin-1-yl)-3-hydroxy-3-[(RS)-2-oxo-3-(3-oxo-3,4-dihydro-2H-benzo[1,4]thiazin-6-yl)-oxazolidin-5-yl]-propionamide] | ≤ 0.031 | 
O=C1CSc2ccc(N3C[C@@H](CNCC4Cn5c(=O)ccc6ccc(F)c4c65)OC3=O)cc2N1 (mixture of isomers) [Example 5, (1RS)-9-fluoro-1-({[(R)-2-oxo-3-(3-oxo-3,4-dihydro-2H-benzo[1,4]thiazin-6-yl)-oxazolidin-5-ylmethyl]-amino}-methyl)-1,2-dihydro-pyrrolo[3,2,1-ij]quinolin-4-one] | ≤ 0.031 | 
O=C1COc2ccc(N3C[C@@H](CCNCC4Cn5c(=O)ccc6ncc(F)c4c65)OC3=O)cc2N1 (mixture of isomers) [Example 103, (RS)-3-fluoro-4-({2-[(R)-2-oxo-3-(3-oxo-3,4-dihydro-2H-benzo[1,4]oxazin-6-yl)-oxazolidin-5-yl]-ethylamino}-methyl)-4,5-dihydro-pyrrolo[3,2,1-de][1,5]naphthyridin-7-one] | ≤ 0.031 | 
O=C1O[C@H](CCNCC2Cn3c(=O)ccc4ccc(F)c2c43)CN1c1ccc2c(c1)OCCO2 (mixture of isomers) [Example 46, (RS)-1-({2-[(R)-3-(2,3-dihydro-benzo[1,4]dioxin-6-yl)-2-oxo-oxazolidin-5-yl]-ethylamino}-methyl)-9-fluoro-1,2-dihydro-pyrrolo[3,2,1-ij]quinolin-4-one] | ≤ 0.031 | 
O=C1COc2ccc(N3C[C@H](CCCN[C@H]4Cn5c(=O)ccc6cccc4c65)OC3=O)cc2N1 [Example 134, (R)-1-{3-[(S)-2-oxo-3-(3-oxo-3,4-dihydro-2H-benzo[1,4]oxazin-6-yl)-oxazolidin-5-yl]-propylamino}-1,2-dihydro-pyrrolo[3,2,1-ij]quinolin-4-one] | ≤ 0.031 | 
O=C1COc2ccc(N3C[C@@H](CCCN[C@@H]4Cn5c(=O)ccc6nccc4c65)OC3=O)cc2N1 [Example 40, (S)-4-{3-[(R)-2-oxo-3-(3-oxo-3,4-dihydro-2H-benzo[1,4]oxazin-6-yl)-oxazolidin-5-yl]-propylamino}-4,5-dihydro-pyrrolo[3,2,1-de][1,5]naphthyridin-7-one] | 0.125 (≈ 0.271 µM) | 
C[C@H]1[C@H](NCCC[C@@H]2CN(c3ccc4c(c3)NC(=O)CS4)C(=O)O2)c2c(F)ccc3ccc(=O)n1c23 (relative stereo) [Example 183, (1R*,2S*)-9-fluoro-2-methyl-1-{3-[(R)-2-oxo-3-(3-oxo-3,4-dihydro-2H-benzo[1,4]thiazin-6-yl)-oxazolidin-5-yl]-propylamino}-1,2-dihydro-pyrrolo[3,2,1-ij]quinolin-4-one] | ≤ 0.031 | 
O=C1CSc2ccc(N3C[C@@H](CCCN[C@H]4CN5C(=O)CNc6ccc(F)c4c65)OC3=O)nc2N1 [Example 171, (R)-7-fluoro-6-{3-[(R)-2-oxo-3-(3-oxo-3,4-dihydro-2H-pyrido[3,2-b][1,4]thiazin-6-yl)-oxazolidin-5-yl]-propylamino}-1,2,5,6-tetrahydro-pyrrolo[1,2,3-de]quinoxalin-3-one] | ≤ 0.031 | 
O=C1COc2ccc(N3C[C@H](CCCN[C@H]4Cn5c(=O)ccc6cccc4c65)OC3=O)nc2N1 [Example 135, (R)-1-{3-[(S)-2-oxo-3-(3-oxo-3,4-dihydro-2H-pyrido[3,2-b][1,4]oxazin-6-yl)-oxazolidin-5-yl]-propylamino}-1,2-dihydro-pyrrolo[3,2,1-ij]quinolin-4-one] | ≤ 0.031 | 
CN(CCC[C@@H]1CN(c2ccc3c(c2)NC(=O)CS3)C(=O)O1)C1Cn2c(=O)ccc3ccc(F)c1c32 (mixture of isomers) [Example 153, (RS)-9-fluoro-1-(methyl-{3-[(R)-2-oxo-3-(3-oxo-3,4-dihydro-2H-benzo[1,4]thiazin-6-yl)-oxazolidin-5-yl]-propyl}-amino)-1,2-dihydro-pyrrolo[3,2,1-ij]quinolin-4-one] | ≤ 0.031 | 
O=C1CSc2ccc(N3C[C@H](CCNC[C@H]4Cn5c(=O)ccc6ccc(F)c4c65)OC3=O)cc2N1 [Example 49, (S)-9-fluoro-1-({2-[(S)-2-oxo-3-(3-oxo-3,4-dihydro-2H-benzo[1,4]thiazin-6-yl)-oxazolidin-5-yl]-ethylamino}-methyl)-1,2-dihydro-pyrrolo[3,2,1-ij]quinolin-4-one] | ≤ 0.031 | 
O=C1CSc2ccc(N3C[C@H](CCNCC4Cn5c(=O)ccc6ncc(F)c4c65)OC3=O)cc2N1 (mixture of isomers) [Example 99, (RS)-3-fluoro-4-({2-[(S)-2-oxo-3-(3-oxo-3,4-dihydro-2H-benzo[1,4]thiazin-6-yl)-oxazolidin-5-yl]-ethylamino}-methyl)-4,5-dihydro-pyrrolo[3,2,1-de][1,5]naphthyridin-7-one] | ≤ 0.031 | 
O=C1CSc2ccc(N3C[C@H](CNCC4Cn5c(=O)ccc6cccc4c65)OC3=O)nc2N1 (mixture of isomers) [Example 175, (RS)-1-({[(S)-2-oxo-3-(3-oxo-3,4-dihydro-2H-pyrido[3,2-b][1,4]thiazin-6-yl)-oxazolidin-5-ylmethyl]-amino}-methyl)-1,2-dihydro-pyrrolo[3,2,1-ij]quinolin-4-one] | ≤ 0.031 | 
COc1nc2ccc(F)c3c2n(c1=O)C[C@@H]3NCCC[C@@H]1CN(c2ccc3c(c2)NC(=O)CO3)C(=O)O1 [Example 111, (R)-7-fluoro-2-methoxy-6-{3-[(R)-2-oxo-3-(3-oxo-3,4-dihydro-2H-benzo[1,4]oxazin-6-yl)-oxazolidin-5-yl]-propylamino}-5,6-dihydro-pyrrolo[1,2,3-de]quinoxalin-3-one] | 0.125 (≈ 0.245 µM) | 
O=C1CSc2ccc(N3C[C@H](CCNCC4Cn5c(=O)ccc6ccc(F)c4c65)OC3=O)cc2N1 (mixture of isomers) [Example 4, (1RS)-9-fluoro-1-({2-[(S)-2-oxo-3-(3-oxo-3,4-dihydro-2H-benzo[1,4]thiazin-6-yl)-oxazolidin-5-yl]-ethylamino}-methyl)-1,2-dihydro-pyrrolo[3,2,1-ij]quinolin-4-one] | ≤ 0.031 | 
O=C1COc2ccc(N3C[C@H](CCCN[C@@H]4Cn5c(=O)ccc6ccc(F)c4c65)OC3=O)nc2N1 [Example 189, (S)-9-fluoro-1-{3-[(S)-2-oxo-3-(3-oxo-3,4-dihydro-2H-pyrido[3,2-b][1,4]oxazin-6-yl)-oxazolidin-5-yl]-propylamino}-1,2-dihydro-pyrrolo[3,2,1-ij]quinolin-4-one] | ≤ 0.031 | 
O=C1COc2ccc(N3C[C@@H](CCCN[C@H]4Cn5c(=O)ccc6ncc(F)c4c65)OC3=O)cc2N1 [Example 140, (R)-3-fluoro-4-{3-[(R)-2-oxo-3-(3-oxo-3,4-dihydro-2H-benzo[1,4]oxazin-6-yl)-oxazolidin-5-yl]-propylamino}-4,5-dihydro-pyrrolo[3,2,1-de][1,5]naphthyridin-7-one] | ≤ 0.031 | 

Source: patent US9822114B2, “Tricyclic oxazolidinone antibiotic compounds” (Idorsia Pharmaceuticals Ltd, priority 2008, dated 2017)
